# Patent US20110262556A1, “SILVER/WATER, SILVER GELS AND SILVER-BASED COMPOSITIONS; AND METHODS FOR MAKING AND USING THE SAME” (AMERICAN SILVER, LLC, priority 2005, published 2011)
# Values joined by “and” are separate entries in the source; they are usually repeats but may differ in a detail not shown here. Equal entries are not always repeated. Where two headings read alike, the source gives them in different places.
# Tests used:
# [1] = biological target: Moloney murine leukemia virus reverse transcriptase (MoMuLV) (Moloney murine leukemia virus, UniProt P03355); assay: Reverse transcriptase inhibition; type: biochemical; settings: 37° C., 24 hours; AZT control at 0.625 microgram/ml
# Experimental: A commercial viral enzyme preparation of Moloney murine leukemia virus reverse transcriptase (MoMuLV) having Poly(A)dT (primer for RT) was used. […] of the MoMuLV preparation was combined with a mixture of dATP, dGTP, dCTP and [^3H]dTTP nucleotides.
# This mixture was combined with 3 ml of the inhibitor to be tested, and the resultant mixture was incubated at 37° C. for 24 hours.
# A negative control experiment was performed in which phosphate buffer saline (PBS, 3 ml) was used instead of the inhibitor.
# A positive control experiment was performed in which a known reverse transcriptase inhibitor (3 ml of AZT at a concentration 0.625 microgram/ml) was used instead of the tested inhibitor.
# The reaction was stopped by adding 25 ml EDTA and 25 ml TCA. The reaction mixture was then spotted on ionic paper (DEAE paper). The paper was washed three times with TCA and then with ethyl alcohol. The filter paper was air dried and put in a scintillation vial with a scintillation cocktail. Radioactivity was measured by a liquid scintillation counter (Blue Star).
# [2] = biological target: T1, Hepatitis B virus DNA polymerase (Hepatitis B virus genotype D subtype ayw, UniProt P03156); assay: DNA polymerase inhibition; type: biochemical; settings: read-out: % Inhibition (DNA polymerase)
# T1 construct: from tissue; host or cells: Hepatitis B virus isolated from human subjects, lysed
# Experimental: Overall approach. Hepatitis B viral extracts from human subjects are incubated with radiolabelled nucleotides and an active inhibitor. Percent inhibition is calculated based on the amount of de novo viral nucleic acid synthesized with respect to lamivudine as a positive control and phosphate buffer saline (PBS) as a negative control.
# Specific procedure. Isolated Hepatitis B virus was lysed to extract free polymerase enzyme, which is free from contaminating enzymes. A virus extract (25 ml) was added to a reaction mixture comprising dATP, dGTP, dCTP and [^3H]dTTP nucleotides (25 ml). Active inhibitor (3 ml) was added to the mixture comprising virus extract and nucleotides. The resultant mixture was incubated at 37° C. for 24 hours.
# A separate negative control experiment was performed in which phosphate buffer saline (PBS, 3 ml) was used instead of the inhibitor (3 ml).
# A separate positive control experiment was performed in which a known DNA polymerase inhibitor (3 ml of lamivudine at a concentration 3 mg/ml) was used instead of the tested inhibitor (3 ml).
# The reaction was stopped by adding 25 ml EDTA and 25 ml TCA (trichloroacetic acid). The reaction mixture was then spotted on ionic paper (DEAE paper). The paper was washed three times with TCA and then with ethyl alcohol. […] Radioactivity was measured by a liquid scintillation counter (Blue Star). […]
# [3] = tested on: Mycobacterium bovis BCG (TMC 1028); type: cell-based
# Pseudomonas culture = tested on: Pseudomonas culture
# Experimental: (§1) Phenol Resistance. Five-one ml aliquots of each dilution of the test phenol were placed into sterile test tubes and allowed to equilibrate in a 20±2° C. water bath. At 30 second intervals, 0.5 ml of each challenge culture was added to the appropriate dilutions of phenol, agitated, and replaced into the water bath: After the appropriate exposure times of 5, 10, and 15 minutes, a loopful of suspension was removed from the assay tubes and transferred to tubes of letheen broth (LETH). The tubes of LETH were incubated at 37±2° C. for 2 days.
# Salmonella culture = settings: 5, 10 or 15 min
# Experimental: as §1
# Staphylococcus culture = tested on: Staphylococcus culture
# Experimental: as §1
# E. coil = assay: Zone of inhibition, agar well; settings: E.coli; antibiotic amount (5-200 mcg)
# K. pneumoniae = assay: Zone of inhibition, agar well; settings: antibiotic amount (5-200 mcg)
# MRSA 2 = assay: Zone of inhibition, agar well; settings: antibiotic amount (1-200 mcg)
# Ps. Aeruginosa = assay: Zone of inhibition, agar well; settings: antibiotic amount (5-200 mcg)
# S. aureus ATCC 6538 P = assay: Zone of inhibition, agar well; settings: antibiotic amount (1-200 mcg)
# B. subtilis = assay: Zone of inhibition, agar well; settings: antibiotic amount (1-200 mcg)
# S.typhi = assay: Zone of inhibition, agar well; settings: antibiotic amount (5-200 mcg)
# [4] = tested on: Escherichia coli MDR clinical isolate (stool); assay: Antibiotic sensitivity, Kirby Bauer; settings: E.c; Kirby-Bauer antibiotic disc
# T1 sequence (P03156 whole entry): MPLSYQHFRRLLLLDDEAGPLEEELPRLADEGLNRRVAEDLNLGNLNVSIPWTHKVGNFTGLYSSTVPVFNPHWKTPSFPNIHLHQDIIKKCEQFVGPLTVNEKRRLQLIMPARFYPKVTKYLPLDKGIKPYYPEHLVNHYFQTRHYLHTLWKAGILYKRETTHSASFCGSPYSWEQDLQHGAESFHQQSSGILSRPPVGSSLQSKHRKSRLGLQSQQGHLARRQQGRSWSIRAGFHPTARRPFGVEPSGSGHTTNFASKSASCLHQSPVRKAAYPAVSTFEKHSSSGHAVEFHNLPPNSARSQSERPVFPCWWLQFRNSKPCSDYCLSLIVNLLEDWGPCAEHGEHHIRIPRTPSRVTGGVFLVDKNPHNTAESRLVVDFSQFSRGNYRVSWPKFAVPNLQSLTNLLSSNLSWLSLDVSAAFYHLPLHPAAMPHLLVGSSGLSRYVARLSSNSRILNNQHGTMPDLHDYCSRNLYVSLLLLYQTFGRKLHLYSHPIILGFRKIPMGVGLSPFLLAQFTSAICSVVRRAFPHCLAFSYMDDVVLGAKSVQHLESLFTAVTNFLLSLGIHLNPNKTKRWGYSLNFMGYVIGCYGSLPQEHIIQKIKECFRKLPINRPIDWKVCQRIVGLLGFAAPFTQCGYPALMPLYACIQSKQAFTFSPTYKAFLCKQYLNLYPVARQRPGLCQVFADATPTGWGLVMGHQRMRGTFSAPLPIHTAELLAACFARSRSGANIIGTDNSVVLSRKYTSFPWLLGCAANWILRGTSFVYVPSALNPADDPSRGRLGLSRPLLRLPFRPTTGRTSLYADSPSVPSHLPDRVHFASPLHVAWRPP
molecule,measurement,setting,value
"Cc1cn([C@H]2C[C@H](N=[N+]=[N-])[C@@H](CO)O2)c(=O)[nH]c1=O [AZT, zidovudine]",% Inhibition (reverse transcriptase),[1],31.33% and 18.06%
Nc1ccn([C@@H]2CS[C@H](CO)O2)c(=O)n1 [lamivudine],inhibition at 3000 µg/mL,[2],31.3%
Oc1ccccc1 [phenol],log reduction,[3],~1.81
same,growth after phenol treatment,"Pseudomonas culture; 1:80 phenol, 5 or 10 min",showed growth
same,growth after phenol treatment,"Pseudomonas culture; 1:80 phenol, 15 min",no growth
same,growth after phenol treatment,"Pseudomonas culture; 1:90 phenol, 5, 10 or 15 min",showed growth
same,growth after phenol treatment,Salmonella culture; 1:90 phenol,no growth
same,growth after phenol treatment,Salmonella culture; 1:100 phenol,showed growth
same,growth after phenol treatment,"Staphylococcus culture; 1:60 phenol, 5 or 10 min",showed growth
same,growth after phenol treatment,"Staphylococcus culture; 1:60 phenol, 15 min",no growth
same,growth after phenol treatment,"Staphylococcus culture; 1:70 phenol, 5, 10 or 15 min",showed growth
Gentamycin,"zone of inhibition, antibiotics",E. coil,Clear
same,"zone of inhibition, antibiotics",K. pneumoniae,17 mm
same,"zone of inhibition, antibiotics",MRSA 2,11 mm
same,"zone of inhibition, antibiotics",Ps. Aeruginosa,No inhibition
same,"zone of inhibition, antibiotics",S. aureus ATCC 6538 P,1Clear
same,"zone of inhibition, antibiotics",B. subtilis,18 mm
same,"zone of inhibition, antibiotics",S.typhi,Clear
same,Zone size (mm),[4],19 mm
